Legend:
[1] = tested on: iCell Hepatocytes
[2] = tested on: CYP1A2; assay: P450-GLO CYP1A2 assay, drug-induced CYP activity in 3-D microtissue of iCell Hepatocytes; conditions: day 6 spheroids, 20% GELTREX, about 0.1 to 100 μM for about 24 hours

SMILES | hepatotoxicity response [1] | induction of CYP1A2 activity [2]
Cc1ccc(C(=O)c2cc(O)c(O)c([N+](=O)[O-])c2)cc1 [Tolcapone] | Increased sensitivity | 
O=C(O)Cc1ccccc1Nc1c(Cl)cccc1Cl [Diclofenac] | Increased sensitivity | 
COc1ccc2[nH]c([S+]([O-])Cc3ncc(C)c(OC)c3C)nc2c1 (stereo not drawn) [Omeprazole] |  | about 2.5 fold
